Measurements from patent publication US20100273167A1, “METHODS FOR DETERMINING PRENATAL ALCOHOL EXPOSURE” (priority 2009, published 2010).
Values joined by “and” are separate entries in the source; they are usually repeats but may differ in a detail not shown here. Equal values may be shown once. Read-outs that look alike come from different tables or passages of the source.

What was measured:
Human AFSC [1] = conditions: 25 mM to 100 mM ethanol
Procedure: Forty-eight hours after seeding, ethanol was added to the media and parafilm sealed to prevent evaporation. Control groups were not treated with ethanol but otherwise treated identically. […] Cell number was measured using a Coulter counter. Cell viability was determined by propidium iodine (PI) exclusion. AFSC were dissociated by 0.05% trypsin/EDTA (Gibco), centrifuged at 1,500 RPM for 5 minutes, and resuspended in 1 ml of PBS in 15 ml polypropylene tubes. 50 μl of PI, a nucleotide analogue, was added to each tube and incubated for 1 hour at room temperature. Cells were centrifuged, supernatant removed, and washed twice with a wash buffer. Samples were analyzed by flow cytometry using the FL-1 channel.

Human AFSC [2] = tested on: Human AFSC
Procedure: (§1) Human AFSC were induced to differentiate into osteogenic cell types as described previously (De Coppi et al., Isolation of amniotic stem cell lines with potential for therapy. Nat Biotechnol. 2007; 25:100-106). Briefly, AFSC was cultured in DMEM low glucose with 10% FBS supplemented with 100 nM dexamethasone (Sigma-Aldrich), 10 mM beta-glycerophosphate (Sigma-Aldrich) and 0.05 mM ascorbic acid-2-phosphate (Wako Chemicals, Irving, Tex.). Cells were grown to confluency and then treated with ethanol for the first 48 hours of osteogenic differentiation to control for ethanol's antiproliferative effect. Cell number was determined after 24 and 48 hours of ethanol and bone differentiation.

[3] = tested on: Human AFSC gene expression; conditions: 100 mM ethanol, 48 hours
Procedure: Microarray Analyses. Two microarray analyses were performed on AFSC sealed with parafilm for 48 hours with or without 100 mM of ethanol. Fragmented antisense cRNA was used for hybridizing to human U133 A arrays (Affymetrix, Inc. Santa Clara, Calif., USA) at the Core Genomic Facility of Wake Forest University School of Medicine.
Raw CEL files were provided by the Microarray Core Facility of the Wake Forest University School of Medicine and were then analyzed with a software package AffylmGUI (Affymetrix LIMMA, Linear Models for Microarray Data, Graphical User Interfaces) (Wettenhall et al., limmaGUI: a graphical user interface for linear modeling of microarray data. Bioinformatics. 2004; 20:3705-3706; Wettenhall et al., affylmGUI: a graphical user interface for linear modeling of single channel microarray data. Bioinformatics. 2006; 22:897-899). Within AffylmGUI, gene expression values were summarized with RMA. RMA adjusts for background noise, performs a quantile normalization, transforms the data into log base 2, and then summarizes the multiple probes into one intensity (Bolstad et al., A comparison of normalization methods for high density oligonucleotide array data based on variance and bias. Bioinformatics. 2003; 19:185-193; Irizarry et al., Exploration, normalization, and summaries of high density oligonucleotide array probe level data. Biostatistics. 2003; 4:249-264; Irizarry et al., Summaries of Affymetrix GeneChip probe level data. Nucleic Acids Res. 2003; 31:e15). Quantification of relative differences in gene expression among the groups of interest was accomplished using AffylmGUI, the sister package of limmaGUI (Wettenhall et al., limmaGUI: a graphical user interface for linear modeling of microarray data. Bioinformatics. 2004; 20:3705-3706; Wettenhall et al., affylmGUI: a graphical user interface for linear modeling of single channel microarray data. Bioinformatics. 2006; 22:897-899). AffylmGUI reads the raw Affymetrix CEL files directly, summarizes the gene expression values using RMA, and then uses LIMMA to identify statistically significant differences in gene expression (Smyth, Linear models and empirical bayes methods for assessing differential expression in microarray experiments. Stat Appl Genet Mol Biol. 2004; 3:Article3). LIMMA fits a linear model for every gene (like ANOVA or multiple regression analysis), and adjusts P values for multiple testings (Smyth, Linear models and empirical bayes methods for assessing differential expression in microarray experiments. Stat Appl Genet Mol Biol. 2004; 3:Article3). Differentially expressed genes were identified with a fold change >1.8.
To uncover enriched processes, data sets were analyzed by DAVID (Database for Annotation, Visualization and Integrated Discovery), a web-based tool that provides statistical methods for identifying over-represented biological themes and pathways within diverse and disparate gene lists (Dennis et al., DAVID: Database for Annotation, Visualization, and Integrated Discovery. Genome Biol. 2003; 4:3). DAVID also identifies over-represented biological themes in terms of their Gene Ontology (GO) terms and provides tools to visualize the distribution of genes on BioCarta and KFGG pathway maps. (Ashburner et al., Gene ontology: tool for the unification of biology. The Gene Ontology Consortium. Nat Genet. 2000; 25:25-29). GO provides consistent descriptions of genes in terms of biological processes and molecular function. Gene-enrichment analysis computes a modified Fisher exact p-value by comparing the ontological themes identified in our data set to total possible ontological processes present on the U133A chip.

[4] = tested on: alkaline phosphatase activity in AFSC; conditions: 100 mM ethanol at day 8 (midpoint) of osteogenic differentiation for 48 hours
Procedure: as §1
Alkaline phosphatase activity was measured using p-nitrophenyl phosphate liquid substrate system (Sigma). Cells grown in 24-well plates were rinsed in PBS and incubated with 0.15% Triton X-100 for 30 mins. Two hundred uL of p-nitrophenyl phosphate solution was added to the Triton-X 100 solution. Cells were incubated in the dark for 1 hour and read spectrophotometrically at 405 nm.

osteopontin = conditions: 100 mM ethanol
Procedure: Total RNA was isolated from AFSC using PerfectPure RNA Cultured Cell Kit (5 Prime) in accordance with the manufacturer's protocol. Following the procedure, DNA digestion was included as recommended by the supplier to eliminate the contamination of genomic DNA. Quality of total RNA was assessed by the spectrophotometric ratio of 260/280. For the reverse-transcriptase reaction, SuperscriptII reverse transcription reagents (Invitrogen) were used. Briefly, 1 μg of RNA was converted to cDNA. PCR amplification was performed with TaqMan Universal Master Mix (Applied Biosystems). Reactions were performed in duplicate, containing 1 μl of cDNA, 1.25 μl probe, 12 μl Master Mix, 10 μl DI H20 and were analyzed in a 96-well optical reaction plate (Applied Biosystems). Reactions were amplified and quantified using an ABI 7700 sequence detectors and manufacturer's software (Applied Biosystems). On demand fluorescent probes for the following genes: β-actin and osteopontin. The threshold cycle (Ct) indicates the fractional cycle number at which the amount of amplified target reaches a defined threshold. ΔCt was obtained by subtracting the Ct values of endogenous controls (β-actin) from the Ct values of the target genes.

c-kit = conditions: in vitro alcohol exposure of AFSC
[5] = over a period of 24 hours, parafilm sealed
Human AFSC [6] = conditions: 48 hours
Procedure: Human AFSC were seeded at 3,000 cells/cm^2 and maintained in culture as described previously (De Coppi et al., Isolation of amniotic stem cell lines with potential for therapy. Nat Biotechnol. 2007; 25:100-106). AFSC were grown in α-MEM medium (Gibco, Invitrogen) containing 15% ES-FBS, 1% glutamine, and 1% penicillin/streptomycin (Gibco), supplemented with 18% Chang B and 2% Chang C (Irvine Scientific) at 37° C. with 5% CO2 atmosphere. For dose-dependent studies on cell growth and viability, AFSC were treated with 25 mM, 50 mM, 75 mM, and 100 mM ethanol (Sigma-Aldrich, St. Louis, Mo.), and sealed with parafilm with media being replaced every 24 hours.
Forty-eight hours after seeding, ethanol was added to the media and parafilm sealed to prevent evaporation. Control groups were not treated with ethanol but otherwise treated identically. Proliferation rate was determined by measuring the number of AFSC after 48 hours of various ethanol concentrations. Cell number was measured using a Coulter counter. Cell viability was determined by propidium iodine (PI) exclusion. AFSC were dissociated by 0.05% trypsin/EDTA (Gibco), centrifuged at 1,500 RPM for 5 minutes, and resuspended in 1 ml of PBS in 15 ml polypropylene tubes. 50 μl of PI, […], was added to each tube and incubated for 1 hour at room temperature. Cells were centrifuged, supernatant removed, and washed twice with a wash buffer. Samples were analyzed by flow cytometry using the FL-1 channel.

CCO [ethanol]
effect on cell viability (Human AFSC [1]): did not have a significant effect on cell viability | calcium deposition (Human AFSC [2]; 100 mM ethanol during first 48 hours of osteogenic differentiation, day 23, non-exposed AFSC 77.40±26.85): 155.06 ± 75.85 µg/mL and 155.1 ± 75.8 µg/mL | effect on cell number (Human AFSC [2]; cells grown to confluency, 24 and 48 hours of ethanol and bone differentiation (data not shown)): no effect on cell number | Basic fibroblast growth factor/FGF2 expression fold change ([3]; growth media): −2.0 fold change | number of genes down-regulated in response to ethanol ([3]; growth media): 16 genes | number of genes up-regulated in response to ethanol ([3]; growth media): 65 genes | Count of down-regulated genes: anatomical structure development ([3]; gene ontology category): 6 | Count of down-regulated genes: circulatory system process ([3]; gene ontology category): 3 | Count of down-regulated genes: embryonic development ([3]; gene ontology category): 3 | Count of down-regulated genes: glucose transport ([3]; gene ontology category): 2 | Count of down-regulated genes: multi-organism process ([3]; gene ontology category): 3 | Count of down-regulated genes: negative regulation of cellular process ([3]; gene ontology category): 6 | Count of down-regulated genes: regulation of biological quality ([3]; gene ontology category): 4 | Count of up-regulated genes: IGF receptor signaling pathway ([3]; gene ontology category): 2 | Count of up-regulated genes: biomineral & ossification ([3]; gene ontology category): 5 | Count of up-regulated genes: blood vessel morphogenesis ([3]; gene ontology category): 4 | Count of up-regulated genes: developmental process ([3]; gene ontology category): 17 | Count of up-regulated genes: organ development ([3]; gene ontology category): 12 | Count of up-regulated genes: organ morphogenesis ([3]; gene ontology category): 7 | Count of up-regulated genes: reproductive developmental process ([3]; gene ontology category): 4 | Count of up-regulated genes: skeletal development ([3]; gene ontology category): 5 | Count of up-regulated genes: system development ([3]; gene ontology category): 13 | Count of up-regulated genes: tyrosine kinase signaling pathway ([3]; gene ontology category): 4 | effect on alkaline phosphatase activity [4]: no statistically significant effect on alkaline phosphatase activity | increase in mRNA expression of osteopontin (osteopontin; 24 hours, growth media, vs control AFSC): 2.2 fold | increase in mRNA expression of osteopontin (osteopontin; 24 hours, osteogenic media): 2 fold | increase in mRNA expression of osteopontin (osteopontin; 48 hours, growth media, vs control AFSC): 2.8 fold change | effect on c-kit expression (c-kit): does not appear to affect c-kit expression | ethanol concentration present in the culture media [5]: did not change | reduction in proliferation rate (Human AFSC [6]; 25 mM ethanol, relative to cells without ethanol): 22% | reduction in the rate of proliferation (Human AFSC [6]; 100 mM ethanol, relative to cells without ethanol): 33% | effect on rate of proliferation (Human AFSC [6]; 25-100 mM ethanol): dose-dependent reduction in the rate of proliferation
